# Results published in patent US7261906B2, “Anti-cancer therapy agent of arsenic hexoxide (As4O6) of a natural chemical substance and its pharmaceutical composition” (priority 1998, dated 2007).
# Assay: Acute toxicity, single oral administration
# Format: in vivo, Rats (Sprague Dawley strain)
# Details: for Mortality, Days after treatment 1 / Mortality, Days after treatment 2 / Mortality, Days after treatment 3 / Mortality, Days after treatment 4 / Mortality, Days after treatment 5 / Mortality, Days after treatment 6 / Mortality, Days after treatment 7 / Mortality, Days after treatment 8 / Mortality, Days after treatment 9 / Mortality, Days after treatment 10 / Mortality, Days after treatment 11 / Mortality, Days after treatment 12 / Mortality, Days after treatment 13 / Mortality, Days after treatment 14 / Mortality, Hours after treatment 1 / Mortality, Hours after treatment 2 / Mortality, Hours after treatment 3 / Mortality, Hours after treatment 4 / Mortality, Hours after treatment 5 / Mortality, Hours after treatment 6 / Final mortality / Final mortality (dead/total): Female; for Final mortality / Final mortality (dead/total): 14 days; for LD50 (50% Lethal Dose): oral administration
# Method: The acute toxicity of oral administration of HD-2 was evaluated according to toxicity assessment criteria described in Article 96-8 of Notice on Food and Drug Safety (Apr. 16, 1994). Rats (Sprague Dawley strain) were used for animal experiments. Dosage of a single, oral administration ranged from 0.4 to 1.25 g/kg body weight in male rats and 0.4 to […] body weight in female rats. General conditions of the animals, toxic symptoms, and mortality were measured every hour for the initial 6 hours following the single administration and once a day afterwards for 14 days. Body weights were measured before starting the study, 7 days after the administration, and at autopsy. Expired rats were studied to find the cause of death at autopsy. […] Some rats manifesting these clinical symptoms expired, but others recovered to normal condition within 2 to 3 days of clinical symptoms.
smiles,measurement,setting,value
"O1[As]2O[As]3O[As]1O[As](O2)O3 [HD-2, arsenic hexoxide (As4O6)]","Mortality, Days after treatment 1",0.4 g/kg B.W. oral,0
same,"Mortality, Days after treatment 2",0.4 g/kg B.W. oral,0
same,"Mortality, Days after treatment 3",0.4 g/kg B.W. oral,0
same,"Mortality, Days after treatment 4",0.4 g/kg B.W. oral,0
same,"Mortality, Days after treatment 5",0.4 g/kg B.W. oral,0
same,"Mortality, Days after treatment 6",0.4 g/kg B.W. oral,0
same,"Mortality, Days after treatment 7",0.4 g/kg B.W. oral,0
same,"Mortality, Days after treatment 8",0.4 g/kg B.W. oral,0
same,"Mortality, Days after treatment 9",0.4 g/kg B.W. oral,0
same,"Mortality, Days after treatment 10",0.4 g/kg B.W. oral,0
same,"Mortality, Days after treatment 11",0.4 g/kg B.W. oral,0
same,"Mortality, Days after treatment 12",0.4 g/kg B.W. oral,0
same,"Mortality, Days after treatment 13",0.4 g/kg B.W. oral,0
same,"Mortality, Days after treatment 14",0.4 g/kg B.W. oral,0
same,"Mortality, Hours after treatment 1",0.4 g/kg B.W. oral,0
same,"Mortality, Hours after treatment 2",0.4 g/kg B.W. oral,0
same,"Mortality, Hours after treatment 3",0.4 g/kg B.W. oral,0
same,"Mortality, Hours after treatment 4",0.4 g/kg B.W. oral,0
same,"Mortality, Hours after treatment 5",0.4 g/kg B.W. oral,0
same,"Mortality, Hours after treatment 6",0.4 g/kg B.W. oral,0
same,Final mortality,0.4 g/kg B.W. oral,0%
same,Final mortality (dead/total),0.4 g/kg B.W. oral,0/5
same,"Mortality, Days after treatment 1",0.5 g/kg B.W. oral,0
same,"Mortality, Days after treatment 2",0.5 g/kg B.W. oral,0
same,"Mortality, Days after treatment 3",0.5 g/kg B.W. oral,0
same,"Mortality, Days after treatment 4",0.5 g/kg B.W. oral,0
same,"Mortality, Days after treatment 5",0.5 g/kg B.W. oral,0
same,"Mortality, Days after treatment 6",0.5 g/kg B.W. oral,0
same,"Mortality, Days after treatment 7",0.5 g/kg B.W. oral,0
same,"Mortality, Days after treatment 8",0.5 g/kg B.W. oral,0
same,"Mortality, Days after treatment 9",0.5 g/kg B.W. oral,0
same,"Mortality, Days after treatment 10",0.5 g/kg B.W. oral,0
same,"Mortality, Days after treatment 11",0.5 g/kg B.W. oral,0
same,"Mortality, Days after treatment 12",0.5 g/kg B.W. oral,0
same,"Mortality, Days after treatment 13",0.5 g/kg B.W. oral,0
same,"Mortality, Days after treatment 14",0.5 g/kg B.W. oral,0
same,"Mortality, Hours after treatment 1",0.5 g/kg B.W. oral,0
same,"Mortality, Hours after treatment 2",0.5 g/kg B.W. oral,0
same,"Mortality, Hours after treatment 3",0.5 g/kg B.W. oral,0
same,"Mortality, Hours after treatment 4",0.5 g/kg B.W. oral,0
same,"Mortality, Hours after treatment 5",0.5 g/kg B.W. oral,0
same,"Mortality, Hours after treatment 6",0.5 g/kg B.W. oral,0
same,Final mortality,0.5 g/kg B.W. oral,0%
same,Final mortality (dead/total),0.5 g/kg B.W. oral,0/5
same,"Mortality, Days after treatment 1",0.58 g/kg B.W. oral,1
same,"Mortality, Days after treatment 2",0.58 g/kg B.W. oral,1
same,"Mortality, Days after treatment 3",0.58 g/kg B.W. oral,0
same,"Mortality, Days after treatment 4",0.58 g/kg B.W. oral,0
same,"Mortality, Days after treatment 5",0.58 g/kg B.W. oral,0
same,"Mortality, Days after treatment 6",0.58 g/kg B.W. oral,0
same,"Mortality, Days after treatment 7",0.58 g/kg B.W. oral,0
same,"Mortality, Days after treatment 8",0.58 g/kg B.W. oral,0
same,"Mortality, Days after treatment 9",0.58 g/kg B.W. oral,0
same,"Mortality, Days after treatment 10",0.58 g/kg B.W. oral,0
same,"Mortality, Days after treatment 11",0.58 g/kg B.W. oral,0
same,"Mortality, Days after treatment 12",0.58 g/kg B.W. oral,0
same,"Mortality, Days after treatment 13",0.58 g/kg B.W. oral,0
same,"Mortality, Days after treatment 14",0.58 g/kg B.W. oral,0
same,"Mortality, Hours after treatment 1",0.58 g/kg B.W. oral,0
same,"Mortality, Hours after treatment 2",0.58 g/kg B.W. oral,0
same,"Mortality, Hours after treatment 3",0.58 g/kg B.W. oral,0
same,"Mortality, Hours after treatment 4",0.58 g/kg B.W. oral,0
same,"Mortality, Hours after treatment 5",0.58 g/kg B.W. oral,0
same,"Mortality, Hours after treatment 6",0.58 g/kg B.W. oral,0
same,Final mortality,0.58 g/kg B.W. oral,40%
same,Final mortality (dead/total),0.58 g/kg B.W. oral,2/5
same,"Mortality, Days after treatment 1",0.62 g/kg B.W. oral,3
same,"Mortality, Days after treatment 2",0.62 g/kg B.W. oral,1
same,"Mortality, Days after treatment 3",0.62 g/kg B.W. oral,0
same,"Mortality, Days after treatment 4",0.62 g/kg B.W. oral,0
same,"Mortality, Days after treatment 5",0.62 g/kg B.W. oral,0
same,"Mortality, Days after treatment 6",0.62 g/kg B.W. oral,0
same,"Mortality, Days after treatment 7",0.62 g/kg B.W. oral,0
same,"Mortality, Days after treatment 8",0.62 g/kg B.W. oral,0
same,"Mortality, Days after treatment 9",0.62 g/kg B.W. oral,0
same,"Mortality, Days after treatment 10",0.62 g/kg B.W. oral,0
same,"Mortality, Days after treatment 11",0.62 g/kg B.W. oral,0
same,"Mortality, Days after treatment 12",0.62 g/kg B.W. oral,0
same,"Mortality, Days after treatment 13",0.62 g/kg B.W. oral,0
same,"Mortality, Days after treatment 14",0.62 g/kg B.W. oral,0
same,"Mortality, Hours after treatment 1",0.62 g/kg B.W. oral,0
same,"Mortality, Hours after treatment 2",0.62 g/kg B.W. oral,0
same,"Mortality, Hours after treatment 3",0.62 g/kg B.W. oral,0
same,"Mortality, Hours after treatment 4",0.62 g/kg B.W. oral,0
same,"Mortality, Hours after treatment 5",0.62 g/kg B.W. oral,0
same,"Mortality, Hours after treatment 6",0.62 g/kg B.W. oral,0
same,Final mortality,0.62 g/kg B.W. oral,80%
same,Final mortality (dead/total),0.62 g/kg B.W. oral,4/5
same,"Mortality, Days after treatment 1",0.625 g/kg B.W. oral,1
same,"Mortality, Days after treatment 2",0.625 g/kg B.W. oral,0
same,"Mortality, Days after treatment 3",0.625 g/kg B.W. oral,0
same,"Mortality, Days after treatment 4",0.625 g/kg B.W. oral,0
same,"Mortality, Days after treatment 5",0.625 g/kg B.W. oral,0
same,"Mortality, Days after treatment 6",0.625 g/kg B.W. oral,0
same,"Mortality, Days after treatment 7",0.625 g/kg B.W. oral,0
same,"Mortality, Days after treatment 8",0.625 g/kg B.W. oral,0
same,"Mortality, Days after treatment 9",0.625 g/kg B.W. oral,0
same,"Mortality, Days after treatment 10",0.625 g/kg B.W. oral,0
same,"Mortality, Days after treatment 11",0.625 g/kg B.W. oral,0
same,"Mortality, Days after treatment 12",0.625 g/kg B.W. oral,0
same,"Mortality, Days after treatment 13",0.625 g/kg B.W. oral,0
same,"Mortality, Days after treatment 14",0.625 g/kg B.W. oral,0
same,"Mortality, Hours after treatment 1",0.625 g/kg B.W. oral,0
same,"Mortality, Hours after treatment 2",0.625 g/kg B.W. oral,0
same,"Mortality, Hours after treatment 3",0.625 g/kg B.W. oral,0
same,"Mortality, Hours after treatment 4",0.625 g/kg B.W. oral,0
same,"Mortality, Hours after treatment 5",0.625 g/kg B.W. oral,0
same,"Mortality, Hours after treatment 6",0.625 g/kg B.W. oral,0
same,Final mortality,0.625 g/kg B.W. oral,100%
same,Final mortality (dead/total),0.625 g/kg B.W. oral,5/5
same,Changes in weight vs control group,all subgroups of different dosages,did not show any significant difference
same,LD50 (50% Lethal Dose),female rats,0.58 g/kg body weight
same,LD50 (50% Lethal Dose),male rats,0.81 g/kg body weight
